Reference: US9611278B2 (Merck Sharp & Dohme Corp., priority 2013, dated 2017)

Target: T1, sGC α1/β1 heterodimer stably expressed in CHO-K1 cells (CHO-K1/sGC) (Homo sapiens, UniProt Q02108+Q02153)
T1 construct: expressed in transfected cells
T1 sequence (Q02108 1-690): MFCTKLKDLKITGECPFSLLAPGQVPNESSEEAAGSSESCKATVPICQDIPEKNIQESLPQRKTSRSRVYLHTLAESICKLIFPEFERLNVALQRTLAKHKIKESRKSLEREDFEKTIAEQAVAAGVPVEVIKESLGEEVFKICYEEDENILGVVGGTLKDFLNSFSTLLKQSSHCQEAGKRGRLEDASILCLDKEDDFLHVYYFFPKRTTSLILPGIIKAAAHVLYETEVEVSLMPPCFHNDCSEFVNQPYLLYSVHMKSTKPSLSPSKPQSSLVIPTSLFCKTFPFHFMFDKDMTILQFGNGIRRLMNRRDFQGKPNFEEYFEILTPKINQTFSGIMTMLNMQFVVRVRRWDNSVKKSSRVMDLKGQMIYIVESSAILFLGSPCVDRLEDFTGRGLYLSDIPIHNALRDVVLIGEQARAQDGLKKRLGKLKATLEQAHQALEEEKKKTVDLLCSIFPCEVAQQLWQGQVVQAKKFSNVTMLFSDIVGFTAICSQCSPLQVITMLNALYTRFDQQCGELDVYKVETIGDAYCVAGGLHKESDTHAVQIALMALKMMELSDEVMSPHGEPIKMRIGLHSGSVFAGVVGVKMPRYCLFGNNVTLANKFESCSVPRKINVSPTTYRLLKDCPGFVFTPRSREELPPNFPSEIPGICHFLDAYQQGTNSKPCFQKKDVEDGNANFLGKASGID
T1 sequence (Q02153 1-619): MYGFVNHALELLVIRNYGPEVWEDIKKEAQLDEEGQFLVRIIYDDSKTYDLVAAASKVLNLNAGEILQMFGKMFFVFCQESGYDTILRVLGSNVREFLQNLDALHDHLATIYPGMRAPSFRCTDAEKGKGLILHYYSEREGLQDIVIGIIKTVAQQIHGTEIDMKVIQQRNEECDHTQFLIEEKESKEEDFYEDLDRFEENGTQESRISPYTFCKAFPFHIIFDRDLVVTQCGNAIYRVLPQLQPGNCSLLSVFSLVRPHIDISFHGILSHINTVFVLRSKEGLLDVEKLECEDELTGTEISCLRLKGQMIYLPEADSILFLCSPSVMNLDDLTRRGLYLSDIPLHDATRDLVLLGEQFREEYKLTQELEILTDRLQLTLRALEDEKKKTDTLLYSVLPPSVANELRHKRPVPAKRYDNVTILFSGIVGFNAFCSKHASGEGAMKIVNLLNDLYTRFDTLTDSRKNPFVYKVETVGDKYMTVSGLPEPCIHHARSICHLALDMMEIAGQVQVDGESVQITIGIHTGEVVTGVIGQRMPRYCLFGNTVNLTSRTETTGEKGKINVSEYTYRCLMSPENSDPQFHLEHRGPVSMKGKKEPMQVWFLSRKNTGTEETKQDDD
Test: Cell-based sGC Functional Assay (CASA Assay)
Details: for Emax: CHO-K1, activation as percentage of maximum cGMP production of Compound A (set to 100%), read-out: % Act.; for EC50: inflection point of cGMP generation in CHO-K1/sGC cells, 4P fit, 1 hr at 37° C., read-out: IP
Procedure, shortened: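 CHO-K1 cells stably expressing human sGC α1/β1 were incubated with compound for 1 h at 37 °C in buffer with 0.5 mM IBMX and 2.5% DMSO, with or without 1 μM DETA-NO. Intracellular cGMP was read by HTRF and expressed as percentage of maximal activation by reference activator Compound A. Values came from a 4-parameter fit.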

Emax | EC50 | SMILES
110% | 269 nM | CC(C)n1ncc(C2(C)C(=O)Nc3nc(-c4nc(CCC(F)(F)C(F)(F)F)nc5c4cnn5C)nc(N)c32)n1 (stereo not shown) [Example 61, 4-Amino-5-(2-isopropyl-2H-1,2,3-triazol-4-yl)-5-methyl-2-(1-methyl-6-(3,3,4,4,4-pentafluorobutyl)-1H-pyrazolo[3,4-d]pyrimidin-4-yl)-5,7-dihydro-6H-pyrrolo[2,3-d]pyrimidin-6-one]
120% | 114 nM | [2H]C([2H])([2H])n1ncc2c(-c3nc(N)c4c(n3)NC(=O)C4(C)c3cn(CC)nn3)nc(CCC(F)(F)C(F)(F)F)nc21 (stereo not shown) [Example 64, 4-Amino-5-(1-ethyl-1H-1,2,3-triazol-4-yl)-5-methyl-2-(1-(methyl-d3)-6-(3,3,4,4,4-pentafluorobutyl)-1H-pyrazolo[3,4-d]pyrimidin-4-yl)-5,7-dihydro-6H-pyrrolo[2,3-d]pyrimidin-6-one]
111% | 169 nM | Cn1ncc2c(-c3nc(N)c4c(n3)NC(=O)C4(C)c3cn(CC4CC4)nn3)nc(CCC(F)(F)C(F)(F)F)nc21 (stereo not shown) [Example 65, 4-Amino-5-(1-(cyclopropylmethyl)-1H-1,2,3-triazol-4-yl)-5-methyl-2-(1-methyl-6-(3,3,4,4,4-pentafluorobutyl)-1H-pyrazolo[3,4-d]pyrimidin-4-yl)-5,7-dihydro-6H-pyrrolo[2,3-d]pyrimidin-6-one]
132% | 294 nM | CC(C)Cn1cc(C2(C)C(=O)Nc3nc(-c4nc(CCC(F)(F)C(F)(F)F)nc5c4cnn5C)nc(N)c32)nn1 (stereo not shown) [Example 70, 34-Amino-5-(1-isobutyl-1H-1,2,3-triazol-4-yl)-5-methyl-2-(1-methyl-6-(3,3,4,4,4-pentafluorobutyl)-1H-pyrazolo[3,4-d]pyrimidin-4-yl)-5,7-dihydro-6H-pyrrolo[2,3-d]pyrimidin-6-one]
169% | 491 nM | CCn1ncc(C2(C)C(=O)Nc3nc(-c4nc(CCC(F)(F)C(F)(F)F)nc5c4cnn5C)nc(N)c32)n1 (stereo not shown) [Example 79, 4-Amino-5-(2-ethyl-2H-1,2,3-triazol-4-yl)-5-methyl-2-(1-methyl-6-(3,3,4,4,4-pentafluorobutyl)-1H-pyrazolo[3,4-d]pyrimidin-4-yl)-5,7-dihydro-6H-pyrrolo[2,3-d]pyrimidin-6-one]
90% | 408 nM | Cn1ncc(C2(C)C(=O)Nc3nc(-c4nc(CCC(F)(F)C(F)(F)F)nc5c4cnn5C)nc(N)c32)n1 (stereo not shown) [Example 80, 4-Amino-5-methyl-5-(2-methyl-2H-1,2,3-triazol-4-yl)-2-(1-methyl-6-(3,3,4,4,4-pentafluorobutyl)-1H-pyrazolo[3,4-d]pyrimidin-4-yl)-5,7-dihydro-6H-pyrrolo[2,3-d]pyrimidin-6-one]
102% | 620 nM | CC(C)n1cc(C2(C)C(=O)Nc3nc(-c4nc(CCC(F)(F)C(F)(F)F)nc5c4cnn5C)ncc32)nn1 (stereo not shown) [Example 81]
78% | 509 nM | [2H]C([2H])([2H])n1ncc2c(-c3nc(N)c4c(n3)NC(=O)C4(c3nc(CC(C)(C)C(=O)OCC)cs3)C3CC3)nc(CCC(F)(F)C(F)(F)F)nc21 (stereo not shown) [Example 82, Ethyl 3-(2-(4-amino-5-cyclopropyl-2-(1-(methyl-d3)-6-(3,3,4,4,4-pentafluorobutyl)-1H-pyrazolo[3,4-d]pyrimidin-4-yl)-6-oxo-6,7-dihydro-5H-pyrrolo[2,3-d]pyrimidin-5-yl)thiazol-4-yl)-2,2-dimethylpropanoate]
80% | 797 nM | [2H]C([2H])([2H])n1ncc2c(-c3nc(N)c4c(n3)NC(=O)C4(c3nc(CC(C)(C)C(=O)O)cs3)C3CC3)nc(CCC(F)(F)C(F)(F)F)nc21 (stereo not shown) [Example 83, 3-(2-(4-Amino-5-cyclopropyl-2-(1-(methyl-d3)-6-(3,3,4,4,4-pentafluorobutyl)-1H-pyrazolo[3,4-d]pyrimidin-4-yl)-6-oxo-6,7-dihydro-5H-pyrrolo[2,3-d]pyrimidin-5-yl)thiazol-4-yl)-2,2-dimethylpropanoic acid]
108% | 112 nM | Cn1ccc2c(-c3nc(N)c4c(n3)NC(=O)C4(C)c3ccc(F)cn3)nc(CCC(F)(F)C(F)(F)F)nc21 (stereo not shown) [Example 85, 4-Amino-5-(5-fluoropyridin-2-yl)-5,7′-dimethyl-2′-(3,3,4,4,4-pentafluorobutyl)-5,7-dihydro-6H,7′H-[2,4′-bipyrrolo[2,3-d]pyrimidin]-6-one]

More lines, now with the values behind:

SMILES | Emax | EC50
[2H]C([2H])([2H])n1ncc2c(-c3nc(N)c4c(n3)NC(=O)C4(c3nnc(C4CC4)o3)C3CC3)nc(CCC(F)(F)F)nc21 (stereo not shown) [Example 47, 4-Amino-5-cyclopropyl-5-(5-cyclopropyl-1,3,4-oxadiazol-2-yl)-2-(1-(methyl-d3)-6-(3,3,3-trifluoropropyl)-1H-pyrazolo[3,4-d]pyrimidin-4-yl)-5,7-dihydro-6H-pyrrolo[2,3-d]pyrimidin-6-one] | 108% | 2080 nM
Cn1ncc2c(-c3nc(N)c4c(n3)NC(=O)C4(c3nnc(C4(C)CC4)o3)C3CC3)nc(CCC(F)(F)C(F)(F)F)nc21 (stereo not shown) [Example 48, 4-Amino-5-cyclopropyl-2-(1-methyl-6-(3,3,4,4,4-pentafluorobutyl)-1H-pyrazolo[3,4-d]pyrimidin-4-yl)-5-(5-(1-methylcyclopropyl)-1,3,4-oxadiazol-2-yl)-5,7-dihydro-6H-pyrrolo[2,3-d]pyrimidin-6-one] | 112% | 399 nM
CC(C)c1nnc(C2(C3CC3)C(=O)Nc3nc(-c4nc(CCC(F)(F)C(F)(F)F)nc5c4cnn5C)nc(N)c32)o1 (stereo not shown) [Example 49, 4-Amino-5-cyclopropyl-5-(5-isopropyl-1,3,4-oxadiazol-2-yl)-2-(1-methyl-6-(3,3,4,4,4-pentafluorobutyl)-1H-pyrazolo[3,4-d]pyrimidin-4-yl)-5,7-dihydro-6H-pyrrolo[2,3-d]pyrimidin-6-one] | 113% | 149 nM
CC(C)c1nnc(C2(C)C(=O)Nc3nc(-c4nc(CCC(F)(F)C(F)(F)F)nc5c4cnn5C)nc(N)c32)o1 (stereo not shown) [Example 50, 4-Amino-5-(5-isopropyl-1,3,4-oxadiazol-2-yl)-5-methyl-2-(1-methyl-6-(3,3,4,4,4-pentafluorobutyl)-1H-pyrazolo[3,4-d]pyrimidin-4-yl)-5,7-dihydro-6H-pyrrolo[2,3-d]pyrimidin-6-one] | 176% | 84 nM
Cn1ncc2c(-c3nc(N)c4c(n3)NC(=O)C4(c3nnc(C4CC4)o3)C3CC3)nc(CC3CC(F)(F)C3)nc21 (stereo not shown) [Example 51, 4-Amino-5-cyclopropyl-5-(5-cyclopropyl-1,3,4-oxadiazol-2-yl)-2-(6-((3,3-difluorocyclobutyl)methyl)-1-methyl-1H-pyrazolo[3,4-d]pyrimidin-4-yl)-5,7-dihydro-6H-pyrrolo[2,3-d]pyrimidin-6-one] | 154% | 119 nM
CCC1(c2nnc(C3CC3)o2)C(=O)Nc2nc(-c3nc(CCC(F)(F)C(F)(F)F)nc4c3cnn4C)nc(N)c21 (stereo not shown) [Example 53, 4-Amino-5-(5-cyclopropyl-1,3,4-oxadiazol-2-yl)-5-ethyl-2-(1-methyl-6-(3,3,4,4,4-pentafluorobutyl)-1H-pyrazolo[3,4-d]pyrimidin-4-yl)-5,7-dihydro-6H-pyrrolo[2,3-d]pyrimidin-6-one] | 165% | 280 nM
Cn1ncc2c(-c3nc(N)c4c(n3)NC(=O)C4(C)c3cn(C4CC4)nn3)nc(CCC(F)(F)C(F)(F)F)nc21 (stereo not shown) [Example 59, 4-Amino-5-(1-cyclopropyl-1H-1,2,3-triazol-4-yl)-5-methyl-2-(1-methyl-6-(3,3,4,4,4-pentafluorobutyl)-1H-pyrazolo[3,4-d]pyrimidin-4-yl)-5,7-dihydro-6H-pyrrolo[2,3-d]pyrimidin-6-one] | 117% | 29 nM
